Earlier results on two compounds are cited in US20130190499A1, “Azaisoquinolinone derivatives as NK3 antagonists” (H. Lundbeck A/S, priority 2010, published 2013).

The target of this series is T1, NK3 (Homo sapiens, UniProt P29371).
T1 sequence (P29371 1-465): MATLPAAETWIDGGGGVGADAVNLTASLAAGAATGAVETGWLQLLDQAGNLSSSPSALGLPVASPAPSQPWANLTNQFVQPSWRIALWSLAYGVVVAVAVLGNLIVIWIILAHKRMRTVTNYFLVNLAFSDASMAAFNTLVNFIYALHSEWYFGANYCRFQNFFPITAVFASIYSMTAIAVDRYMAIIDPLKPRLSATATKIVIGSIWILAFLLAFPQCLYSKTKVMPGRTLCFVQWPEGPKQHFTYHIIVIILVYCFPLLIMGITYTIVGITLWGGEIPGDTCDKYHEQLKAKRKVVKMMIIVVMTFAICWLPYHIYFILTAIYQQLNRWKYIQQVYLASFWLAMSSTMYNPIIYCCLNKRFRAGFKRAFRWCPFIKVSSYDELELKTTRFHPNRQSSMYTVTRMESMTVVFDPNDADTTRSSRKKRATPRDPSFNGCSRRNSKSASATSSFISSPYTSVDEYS

For `CC[C@H](NC(=O)c1c(O)c(-c2ccccc2)nc2ccccc12)c1ccccc1` [talnetant], the “Effect in clinical trials on cognitive behaviour of schizophrenics” value (schizophrenics) is “ameliorate the cognitive behaviour of schizophrenics”.

Take `CC(=O)N(C)C1(c2ccccc2)CCN(CCC[C@]2(c3ccc(Cl)c(Cl)c3)CCCN(C(=O)c3ccccc3)C2)CC1` [Osanetant]: the “Effect in clinical trials, in particular on positive symptoms of psychosis” value (versus placebo, delusions, hallucinations and paranoia) was “superior to placebo”.
